The values that follow come from ChEMBL document CHEMBL1165961, “Fijiolides A and B, inhibitors of TNF-alpha-induced NFkappaB activation, from a marine-derived sediment bacterium of the genus Nocardiopsis” (J Nat Prod, 2010).

Activity calls are given as the source filed them. The rule behind the calls is not given here.

Type in all cases: cell-based
Test [1] has as its target NAD(P)H dehydrogenase [quinone] 1 (Mus musculus) (UniProt Q64669). Briefly: Induction of NADPH-dependent quinone reductase activity in mouse Hepa-1c1c7 cells at 28.4 uM after 48 hrs by MTT assay.
Another test deals with HEK293. Briefly: (§1) Inhibition of NF-kappaB activity in TNF-alpha-induced human HEK293 cells by luciferase assay. Particulars: dose or concentration not given here.
Test [2] deals with NAD(P)H dehydrogenase [quinone] 1 (Mus musculus) (UniProt Q64669). Briefly: Induction of NADPH-dependent quinone reductase activity in mouse Hepa-1c1c7 cells assessed as concentration to double activity after 48 hrs by MTT assay.
Chain of NAD(P)H dehydrogenase [quinone] 1 (Mus musculus) (Q64669 whole entry): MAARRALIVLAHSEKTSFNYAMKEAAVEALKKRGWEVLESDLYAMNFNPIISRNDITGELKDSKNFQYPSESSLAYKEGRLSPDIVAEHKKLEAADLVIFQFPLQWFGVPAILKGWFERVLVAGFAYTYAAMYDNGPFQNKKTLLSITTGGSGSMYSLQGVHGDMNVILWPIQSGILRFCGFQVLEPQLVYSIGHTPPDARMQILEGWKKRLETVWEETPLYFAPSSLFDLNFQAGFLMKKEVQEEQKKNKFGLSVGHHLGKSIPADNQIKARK
Test [3] shares this target. Briefly: Induction of NADPH-dependent quinone reductase activity in mouse Hepa-1c1c7 cells assessed as induction ratio at 28.4 uM after 48 hrs by MTT assay relative to DMSO control.
Test [4] is described as follows: as §1.

`CN(C)[C@H]1[C@@H](O)[C@@H](O)[C@H](O[C@]23C=CC=C2c2c4ccc(c2Cl)[C@@H](O)COC(=O)C[C@H](N)c2cc(O)c(c(Cl)c2)O[C@H]43)OC1(C)C`: the outcome in test [1] was inactive. Moreover, in the test on HEK293, the inhibition amounted to 46.5%.
In the case of `CC(=O)N[C@H]1CC(=O)OC[C@H](O)c2ccc3c(c2Cl)C2=CC=C[C@]2(O[C@@H]2OC(C)(C)[C@@H](N(C)C)[C@@H](O)[C@H]2O)[C@@H]3Oc2c(O)cc1cc2Cl` [FIJIOLIDE A], in test [2], the CD is 1.8 µM. In addition, the Ratio in test [3] is 3.5. The inhibition with HEK293 amounted to 70.3%. Further, the IC50 in test [4] is 570 nM.
Regarding `O=c1cc(-c2ccc(Br)cc2)oc2ccccc12`, in test [2], the CD is 0.013 µM.
